From PubChem BioAssay (NCI)
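Values below derive from 48-hour exposures of cells grown in 96-well plates, with endpoints linearly interpolated between the two concentrations bracketing the appropriate inhibition level. At the GI50, growth is halved. At the TGI there is no net growth.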

Experiments:
Assay in all cases: DTP human tumour cell line panel, 48 h
SK-MEL-5 melanoma = tested on: SK-MEL-5 melanoma
SR leukemia = tested on: SR leukemia
OVCAR-4 ovarian = tested on: OVCAR-4 ovarian
HCT-15 colon = tested on: HCT-15 colon
LOX IMVI melanoma = tested on: LOX IMVI melanoma
HT29 colon = tested on: HT29 colon
MALME-3M melanoma = tested on: MALME-3M melanoma
RPMI-8226 leukemia = tested on: RPMI-8226 leukemia
T-47D breast = tested on: T-47D breast
SW-620 colon = tested on: SW-620 colon
RXF 393 renal = tested on: RXF 393 renal
SF-295 CNS = tested on: SF-295 CNS
BT-549 breast = tested on: BT-549 breast
786-0 renal = tested on: 786-0 renal
SF-268 CNS = tested on: SF-268 CNS
CCRF-CEM leukemia = tested on: CCRF-CEM leukemia
NCI-H23 lung = tested on: NCI-H23 lung
PC-3 prostate = tested on: PC-3 prostate
U251 CNS = tested on: U251 CNS
SF-539 CNS = tested on: SF-539 CNS
SK-MEL-28 melanoma = tested on: SK-MEL-28 melanoma
MDA-MB-231 breast = tested on: MDA-MB-231 breast
SN12C renal = tested on: SN12C renal
DU-145 prostate = tested on: DU-145 prostate
SK-MEL-2 melanoma = tested on: SK-MEL-2 melanoma
MOLT-4 leukemia = tested on: MOLT-4 leukemia
NCI-H522 lung = tested on: NCI-H522 lung
KM12 colon = tested on: KM12 colon
NCI/ADR-RES ovarian = tested on: NCI/ADR-RES ovarian
MCF7 breast = tested on: MCF7 breast
CAKI-1 renal = tested on: CAKI-1 renal
OVCAR-8 ovarian = tested on: OVCAR-8 ovarian
OVCAR-5 ovarian = tested on: OVCAR-5 ovarian
IGROV1 ovarian = tested on: IGROV1 ovarian
UACC-62 melanoma = tested on: UACC-62 melanoma
SNB-75 CNS = tested on: SNB-75 CNS
MDA-MB-435 = tested on: MDA-MB-435
HOP-92 NSCLC = tested on: HOP-92 NSCLC
ACHN renal = tested on: ACHN renal
OVCAR-3 ovarian = tested on: OVCAR-3 ovarian
UO-31 renal = tested on: UO-31 renal
M14 melanoma = tested on: M14 melanoma
COLO 205 colon = tested on: COLO 205 colon
A549 NSCLC = tested on: A549 NSCLC
HCC-2998 colon = tested on: HCC-2998 colon
HL-60(TB) leukemia = tested on: HL-60(TB) leukemia
HCT-116 colon = tested on: HCT-116 colon
A498 renal = tested on: A498 renal
SNB-19 CNS = tested on: SNB-19 CNS
HOP-62 NSCLC = tested on: HOP-62 NSCLC
NCI-H226 lung = tested on: NCI-H226 lung
EKVX NSCLC = tested on: EKVX NSCLC
HS 578T breast = tested on: HS 578T breast
TK-10 renal = tested on: TK-10 renal
NCI-H460 lung = tested on: NCI-H460 lung
K-562 leukemia = tested on: K-562 leukemia
UACC-257 melanoma = tested on: UACC-257 melanoma
SK-OV-3 ovarian = tested on: SK-OV-3 ovarian

SMILES: COc1ccc(/C=N/NC(=O)c2[nH]c3ccc(Br)cc3c2-c2ccccc2)o1
- GI50 (SK-MEL-5 melanoma): 163 nM
- TGI (SK-MEL-5 melanoma): 391 nM
- GI50 (SR leukemia): 114 nM
- TGI (SR leukemia): 19.1 µM
- GI50 (OVCAR-4 ovarian): 265 nM
- TGI (OVCAR-4 ovarian): 29.3 µM
- GI50 (HCT-15 colon): 219 nM
- TGI (HCT-15 colon): 3.04 µM
- GI50 (LOX IMVI melanoma): 35.4 nM
- TGI (LOX IMVI melanoma): 12.3 µM
- GI50 (HT29 colon): 66.6 nM
- GI50 (MALME-3M melanoma): 202 nM
- TGI (MALME-3M melanoma): 17.7 µM
- GI50 (RPMI-8226 leukemia): 161 nM
- TGI (RPMI-8226 leukemia): > 32.5 µM
- GI50 (T-47D breast): 2950 nM
- TGI (T-47D breast): 20.6 µM
- GI50 (SW-620 colon): 196 nM
- TGI (SW-620 colon): 28.3 µM
- GI50 (RXF 393 renal): 1100 nM
- TGI (RXF 393 renal): 17.8 µM
- GI50 (SF-295 CNS): 165 nM
- TGI (SF-295 CNS): 2880 nM
- GI50 (BT-549 breast): 177 nM
- TGI (BT-549 breast): 667 nM
- GI50 (786-0 renal): 353 nM
- TGI (786-0 renal): 13.7 µM
- GI50 (SF-268 CNS): 500 nM
- TGI (SF-268 CNS): 27.8 µM
- GI50 (CCRF-CEM leukemia): 136 nM
- TGI (CCRF-CEM leukemia): > 55.2 µM
- GI50 (NCI-H23 lung): 300 nM
- TGI (NCI-H23 lung): 9.9 µM
- GI50 (PC-3 prostate): 386 nM
- TGI (PC-3 prostate): > 34.4 µM
- GI50 (U251 CNS): 309 nM
- TGI (U251 CNS): 11 µM
- GI50 (SF-539 CNS): 72 nM
- TGI (SF-539 CNS): 237 nM
- GI50 (SK-MEL-28 melanoma): 418 nM
- TGI (SK-MEL-28 melanoma): 15.8 µM
- GI50 (MDA-MB-231 breast): 148 nM
- TGI (MDA-MB-231 breast): 2190 nM
- GI50 (SN12C renal): 125 nM
- TGI (SN12C renal): 8.31 µM
- GI50 (DU-145 prostate): 307 nM
- TGI (DU-145 prostate): 14.3 µM
- GI50 (SK-MEL-2 melanoma): 134 nM
- TGI (SK-MEL-2 melanoma): 9.22 µM
- GI50 (MOLT-4 leukemia): 59.9 nM
- TGI (MOLT-4 leukemia): 21.9 µM
- GI50 (NCI-H522 lung): 21.6 nM
- TGI (NCI-H522 lung): 59.2 nM
- GI50 (KM12 colon): 311 nM
- TGI (KM12 colon): 4.84 µM
- GI50 (NCI/ADR-RES ovarian): 53.3 nM
- TGI (NCI/ADR-RES ovarian): 2590 nM
- GI50 (MCF7 breast): 90.7 nM
- TGI (MCF7 breast): 11.1 µM
- GI50 (CAKI-1 renal): 295 nM
- TGI (CAKI-1 renal): 21 µM
- GI50 (OVCAR-8 ovarian): 143 nM
- TGI (OVCAR-8 ovarian): 1570 nM
- GI50 (OVCAR-5 ovarian): 161 nM
- TGI (OVCAR-5 ovarian): 17.6 µM
- GI50 (IGROV1 ovarian): 314 nM
- TGI (IGROV1 ovarian): 16.7 µM
- GI50 (UACC-62 melanoma): 122 nM
- TGI (UACC-62 melanoma): 13.9 µM
- GI50 (SNB-75 CNS): 165 nM
- TGI (SNB-75 CNS): 3.53 µM
- GI50 (MDA-MB-435): 112 nM
- TGI (MDA-MB-435): 303 nM
- GI50 (HOP-92 NSCLC): 953 nM
- TGI (HOP-92 NSCLC): 10.1 µM
- GI50 (ACHN renal): 203 nM
- TGI (ACHN renal): 20.7 µM
- GI50 (OVCAR-3 ovarian): 284 nM
- TGI (OVCAR-3 ovarian): 2840 nM
- GI50 (UO-31 renal): 470 nM
- TGI (UO-31 renal): 21.5 µM
- GI50 (M14 melanoma): 299 nM
- TGI (M14 melanoma): 15.3 µM
- GI50 (COLO 205 colon): 196 nM
- TGI (COLO 205 colon): 377 nM
- GI50 (A549 NSCLC): 251 nM
- TGI (A549 NSCLC): > 49.9 µM
- GI50 (HCC-2998 colon): 382 nM
- TGI (HCC-2998 colon): 14.3 µM
- GI50 (HL-60(TB) leukemia): 74.8 nM
- TGI (HL-60(TB) leukemia): 265 nM
- GI50 (HCT-116 colon): 108 nM
- TGI (HCT-116 colon): 1100 nM
- GI50 (A498 renal): 16.7 µM
- TGI (A498 renal): 37.3 µM
- GI50 (SNB-19 CNS): 323 nM
- TGI (SNB-19 CNS): 19.7 µM
- GI50 (HOP-62 NSCLC): 467 nM
- TGI (HOP-62 NSCLC): 20.8 µM
- GI50 (NCI-H226 lung): 276 nM
- TGI (NCI-H226 lung): 7.95 µM
- GI50 (EKVX NSCLC): 968 nM
- TGI (EKVX NSCLC): 29.4 µM
- GI50 (HS 578T breast): 570 nM
- TGI (HS 578T breast): 21 µM
- GI50 (TK-10 renal): 2260 nM
- TGI (TK-10 renal): 37.1 µM
- GI50 (NCI-H460 lung): 248 nM
- TGI (NCI-H460 lung): 1590 nM
- GI50 (K-562 leukemia): 55 nM
- TGI (K-562 leukemia): > 72.2 µM
- GI50 (UACC-257 melanoma): 258 nM
- TGI (UACC-257 melanoma): 23.2 µM
- GI50 (SK-OV-3 ovarian): 455 nM
- TGI (SK-OV-3 ovarian): 40.2 µM
